Measurements: patent US20090232762A1, “COMPOSITIONS FOR DELIVERY OF THERAPEUTIC AGENTS” (priority 2008, published 2009)
pIC50: −log10 of the molar value. Like-named read-outs stand apart in the source and are kept apart here.

How the values were obtained:
[1] = biological target: T1, yCD-His (Saccharomyces cerevisiae, UniProt Q12178); test: Enzyme activity of yCD-His (substrate turnover); assay type: biochemical, S. cerevisiae
T1 construct: The resulting 474 bp gene was subcloned into pET-15b; made in house; host or cells: E. coli BL21(DE3)
T1 sequence (Q12178 whole entry): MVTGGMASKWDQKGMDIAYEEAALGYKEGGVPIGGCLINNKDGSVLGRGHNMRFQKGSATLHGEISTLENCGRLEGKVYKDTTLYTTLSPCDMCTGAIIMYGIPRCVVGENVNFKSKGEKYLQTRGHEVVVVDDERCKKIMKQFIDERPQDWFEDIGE
Method: (§1) The S. cerevisiae yeast cytosine deaminase (yCD) enzyme was cloned and expressed. The resulting 474 bp gene was subcloned into pET-15b to facilitate purification of the protein via a fused histidine tag and transformed into competent BL21(DE3) cells for protein expression. An estimate of about 25-30 mg of pure yCD-His was collected from a 1-liter culture. Thrombin cleavage of the histidine tag on yCD-His was achieved by incubating the protein for 2 hours at 23° C. in thrombin cleavage buffer. Enzyme activity characteristics for yCD and yCD-His was investigated using both the prodrug 5FC and the enzyme's natural substrate, the DNA base cytosine. Five-FC turnover rates remained within 10^5 M^−1·s^−1 (Table 1) for both proteins (see E. Kievit et al. Cancer Res. 2000, 60:6649-6655). The diffusion controlled limit for extremely efficient enzymes and their substrates in solution is in the range 10^8-10^9 M^−1·s^−1, therefore it was concluded that yCD was a very efficient pretargeting enzyme for catalyzing 5FC to 5FU conversion, especially applicable to GDEPT.

[2] = cited from earlier work; for LogP (Drug): drug named
[3] = biological target: T2, yCD (Saccharomyces cerevisiae, UniProt Q12178); test: Enzyme activity of yCD (His tag cleaved); assay type: biochemical, S. cerevisiae
T2 construct: The resulting 474 bp gene was subcloned into pET-15b; histidine tag (pET-15b) (N, cleaved yes); made in house; host or cells: E. coli BL21(DE3)
T2 sequence (Q12178 whole entry): as above
Method: as §1

[4] = test system: MDA-MB-231; test: 5FU toxicity in MDA-MB-231 (drug concentration vs. % cell death, Hill-Slope fit); assay type: cell-based; settings: Homo sapiens; MDA-MB-231, % cell death, Hill-Slope curve fit
[5] = test system: MDA-MB-231; settings: reported on the National Cancer Institute website; cited from earlier work

kcat [1] [s⁻¹] | kcat [3] [s⁻¹] | Structure (SMILES) | LogP (Drug) [2] | further results
315 | 448 | Nc1nc(=O)[nH]cc1F [5-FC, 5-fluorocytosine] | – | LogP (Prodrug) ([2]; prodrug column): −1.79
607 | 741 | Nc1cc[nH]c(=O)n1 [Cytosine, cytosine] | – | –
– | – | COc1cccc2c1C(=O)c1c(O)c3c(c(O)c1C2=O)C[C@@](O)(C(=O)CO)C[C@@H]3O[C@H]1C[C@H](N)[C@H](O)[C@H](C)O1 [DOX, doxorubicin] | +0.36 | –
– | – | O=c1[nH]cc(F)c(=O)[nH]1 [5-FU, 5-fluorouracil] | −2.17 | pIC50 [4]: 5.54; pIC50 [5]: 6.05
– | – | CCc1c2c(nc3ccc(O)cc13)-c1cc3c(c(=O)n1C2)COC(=O)[C@]3(O)CC [SN-38, 7-ethyl-10-hydroxycamptothecin] | +2.02 | –
